Assay results reported in ChEMBL document CHEMBL1152706, “Stieglitz rearrangement of N,N-dichloro-beta,beta-disubstituted taurines under mild aqueous conditions” (Bioorg Med Chem Lett, 2009).

Key:
Assay type in all cases: physicochemical
Settings in all cases: buffer
[1] = Chemical stability assessed as half life at pH 4 at 40 degC
[2] = Chemical stability assessed as half life at pH 7 at 40 degC
[3] = Chemical stability assessed as half life at pH 4 at 25 degC

O=S(=O)([O-])CCCCCN(Cl)Cl.[Na+]
half-life [1]: 7200 min | half-life [2]: 1440 min

CC(C)(CS(=O)(=O)[O-])N(Cl)Cl.[Na+]
t1/2 [1]: > 2 yr

O=S(=O)([O-])CCCCN(Cl)Cl.[Na+]
half-life [3]: 360 min

CCC(CC)(CS(=O)(=O)[O-])N(Cl)Cl.[Na+]
half-life [1]: 1440 min | half-life [2]: 720 min

CCCC(CCC)(CS(=O)(=O)[O-])N(Cl)Cl.[Na+]
half-life [1]: 720 min | half-life [2]: 2880 min

CC(C)C(CS(=O)(=O)[O-])(C(C)C)N(Cl)Cl.[Na+]
half-life [3]: < 10 min

O=S(=O)([O-])CCCCCCN(Cl)Cl.[Na+]
half-life [1]: 10100 min

O=S(=O)([O-])CCCCCCCN(Cl)Cl.[Na+]
half-life [1]: 2880 min

COCC(C)(CS(=O)(=O)[O-])N(Cl)Cl.[Na+] (centres undefined)
half-life [3]: 2160 min

CC1(C)CC(C)(C)CC(CS(=O)(=O)[O-])(N(Cl)Cl)C1.[Na+]
half-life [1]: 1440 min

O=S(=O)([O-])CCOCCN(Cl)Cl.[Na+]
half-life [3]: < 1440 min
